Experimental data: US6114310A, “Efflux pump inhibitors” (priority 1998, dated 2000)

Test system: Pseudomonas aeruginosa PAM1001
Test: microbe, parasite or virus in culture
Assay type: cell-based
Summary of the method: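 Checkerboard broth microdilution (NCCLS) with the efflux pump inhibitor and levofloxacin, each diluted along one axis of the plate, in Mueller Hinton Broth. Inoculum 5×10^5 CFU/ml from early-log culture; incubation 20 h at 35° C. Growth read at 650 nm and visually.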

[1] = Table 1, EPI Conc. μg/ml (number not given; column between 10 and 40 μg/ml)
[2] = Table 2, EPI Conc. μg/ml (number not given; column between 10 and 40 μg/ml)
[3] = Table 3, EPI Conc. μg/ml (number not given; column between 10 and 40 μg/ml)
[4] = Table 4, EPI Conc. μg/ml (number not given; column between 10 and 40 μg/ml)

Substance	Levofloxacin MIC Against P. aeruginosa PAM1001 in Presence of Efflux Pump Inhibitor (EPI), Minimum Inhibitory Concentration (Table 1, EPI Conc. 0 μg/ml) [µg/mL]	Levofloxacin MIC Against P. aeruginosa PAM1001 in Presence of Efflux Pump Inhibitor (EPI), Minimum Inhibitory Concentration (Table 1, EPI Conc. 0.625 μg/ml) [µg/mL]	Levofloxacin MIC Against P. aeruginosa PAM1001 in Presence of Efflux Pump Inhibitor (EPI), Minimum Inhibitory Concentration (Table 1, EPI Conc. 5 μg/ml) [µg/mL]	Levofloxacin MIC Against P. aeruginosa PAM1001 in Presence of Efflux Pump Inhibitor (EPI), Minimum Inhibitory Concentration (Table 1, EPI Conc. 10 μg/ml) [µg/mL]	Levofloxacin MIC Against P. aeruginosa PAM1001 in Presence of Efflux Pump Inhibitor (EPI), Minimum Inhibitory Concentration (Table 1, EPI Conc. 40 μg/ml) [µg/mL]	Levofloxacin MIC Against P. aeruginosa PAM1001 in Presence of Efflux Pump Inhibitor (EPI), Minimum Inhibitory Concentration [1] [µg/mL]	Levofloxacin MIC Against P. aeruginosa PAM1001 in Presence of Efflux Pump Inhibitor (EPI), Minimum Inhibitory Concentration (Table 2, EPI Conc. 0 μg/ml) [µg/mL]	Levofloxacin MIC Against P. aeruginosa PAM1001 in Presence of Efflux Pump Inhibitor (EPI), Minimum Inhibitory Concentration (Table 2, EPI Conc. 0.625 μg/ml) [µg/mL]	Levofloxacin MIC Against P. aeruginosa PAM1001 in Presence of Efflux Pump Inhibitor (EPI), Minimum Inhibitory Concentration (Table 2, EPI Conc. 5 μg/ml) [µg/mL]	Levofloxacin MIC Against P. aeruginosa PAM1001 in Presence of Efflux Pump Inhibitor (EPI), Minimum Inhibitory Concentration (Table 2, EPI Conc. 10 μg/ml) [µg/mL]	Levofloxacin MIC Against P. aeruginosa PAM1001 in Presence of Efflux Pump Inhibitor (EPI), Minimum Inhibitory Concentration (Table 2, EPI Conc. 40 μg/ml) [µg/mL]	Levofloxacin MIC Against P. aeruginosa PAM1001 in Presence of Efflux Pump Inhibitor (EPI), Minimum Inhibitory Concentration [2] [µg/mL]	Levofloxacin MIC Against P. aeruginosa PAM1001 in Presence of Efflux Pump Inhibitor (EPI), Minimum Inhibitory Concentration (Table 3, EPI Conc. 0 μg/ml) [µg/mL]	Levofloxacin MIC Against P. aeruginosa PAM1001 in Presence of Efflux Pump Inhibitor (EPI), Minimum Inhibitory Concentration (Table 3, EPI Conc. 0.625 μg/ml) [µg/mL]	Levofloxacin MIC Against P. aeruginosa PAM1001 in Presence of Efflux Pump Inhibitor (EPI), Minimum Inhibitory Concentration (Table 3, EPI Conc. 5 μg/ml) [µg/mL]	Levofloxacin MIC Against P. aeruginosa PAM1001 in Presence of Efflux Pump Inhibitor (EPI), Minimum Inhibitory Concentration (Table 3, EPI Conc. 10 μg/ml) [µg/mL]	Levofloxacin MIC Against P. aeruginosa PAM1001 in Presence of Efflux Pump Inhibitor (EPI), Minimum Inhibitory Concentration (Table 3, EPI Conc. 40 μg/ml) [µg/mL]	Levofloxacin MIC Against P. aeruginosa PAM1001 in Presence of Efflux Pump Inhibitor (EPI), Minimum Inhibitory Concentration [3] [µg/mL]	Levofloxacin MIC Against P. aeruginosa PAM1001 in Presence of Efflux Pump Inhibitor (EPI), Minimum Inhibitory Concentration (Table 4, EPI Conc. 0 μg/ml) [µg/mL]	Levofloxacin MIC Against P. aeruginosa PAM1001 in Presence of Efflux Pump Inhibitor (EPI), Minimum Inhibitory Concentration (Table 4, EPI Conc. 0.625 μg/ml) [µg/mL]	also measured
D-Ornithyl-β-[N-(ethylthioethyl)]alanine 2-naphthylamide [Compound 42 (Table 3)]	4	4	4	1	0.008	0.06	4	4	0.25	0.03	0.06	0.03	4	4	2	0.25	0.125	0.125	4	4	Levofloxacin MIC Against P. aeruginosa PAM1001 in Presence of Efflux Pump Inhibitor (EPI), Minimum Inhibitory Concentration (Table 1, EPI Conc. […]): 4 µg/mL; Levofloxacin MIC Against P. aeruginosa PAM1001 in Presence of Efflux Pump Inhibitor (EPI), Minimum Inhibitory Concentration (Table 3, EPI Conc. […]): 4 µg/mL; Levofloxacin MIC Against P. aeruginosa PAM1001 in Presence of Efflux Pump Inhibitor (EPI), Minimum Inhibitory Concentration (Table 4, EPI Conc. 5 μg/ml): 2 µg/mL; Levofloxacin MIC Against P. aeruginosa PAM1001 in Presence of Efflux Pump Inhibitor (EPI), Minimum Inhibitory Concentration (Table 4, EPI Conc. 10 μg/ml): 1 µg/mL; Levofloxacin MIC Against P. aeruginosa PAM1001 in Presence of Efflux Pump Inhibitor (EPI), Minimum Inhibitory Concentration (Table 4, EPI Conc. 40 μg/ml): 0.03 µg/mL; Levofloxacin MIC Against P. aeruginosa PAM1001 in Presence of Efflux Pump Inhibitor (EPI), Minimum Inhibitory Concentration (Table 4, EPI Conc. […]): 4 µg/mL; Levofloxacin MIC Against P. aeruginosa PAM1001 in Presence of Efflux Pump Inhibitor (EPI), Minimum Inhibitory Concentration [4]: 0.125 µg/mL
D-Ornithyl-β-[N-(isobutyl)]alanine quinoline-3-amide [Compound 40 (Table 3)]	4	4	1	0.06	0.015	0.03	4	4	1	0.06	0.06	0.06	4	4	0.06	0.015	0.015	0.015	4	4	Levofloxacin MIC Against P. aeruginosa PAM1001 in Presence of Efflux Pump Inhibitor (EPI), Minimum Inhibitory Concentration (Table 1, EPI Conc. […]): 4 µg/mL; Levofloxacin MIC Against P. aeruginosa PAM1001 in Presence of Efflux Pump Inhibitor (EPI), Minimum Inhibitory Concentration (Table 4, EPI Conc. 5 μg/ml): 1 µg/mL; Levofloxacin MIC Against P. aeruginosa PAM1001 in Presence of Efflux Pump Inhibitor (EPI), Minimum Inhibitory Concentration (Table 4, EPI Conc. 10 μg/ml): 0.25 µg/mL; Levofloxacin MIC Against P. aeruginosa PAM1001 in Presence of Efflux Pump Inhibitor (EPI), Minimum Inhibitory Concentration (Table 4, EPI Conc. 40 μg/ml): 0.06 µg/mL; Levofloxacin MIC Against P. aeruginosa PAM1001 in Presence of Efflux Pump Inhibitor (EPI), Minimum Inhibitory Concentration [4]: 0.06 µg/mL
Phenylalanyl-Nα -methylornithine 2-(naphthylmethyl)amide [Compound 17 (Table 1)]	4	4	0.25	0.125	0.125	0.06	4	4	4	2	0.03	0.50	4	4	4	2	0.25	1	4	4	Levofloxacin MIC Against P. aeruginosa PAM1001 in Presence of Efflux Pump Inhibitor (EPI), Minimum Inhibitory Concentration (Table 2, EPI Conc. […]): 4 µg/mL; Levofloxacin MIC Against P. aeruginosa PAM1001 in Presence of Efflux Pump Inhibitor (EPI), Minimum Inhibitory Concentration (Table 3, EPI Conc. […]): 4 µg/mL; Levofloxacin MIC Against P. aeruginosa PAM1001 in Presence of Efflux Pump Inhibitor (EPI), Minimum Inhibitory Concentration (Table 4, EPI Conc. 5 μg/ml): 0.50 µg/mL; Levofloxacin MIC Against P. aeruginosa PAM1001 in Presence of Efflux Pump Inhibitor (EPI), Minimum Inhibitory Concentration (Table 4, EPI Conc. 10 μg/ml): 0.125 µg/mL; Levofloxacin MIC Against P. aeruginosa PAM1001 in Presence of Efflux Pump Inhibitor (EPI), Minimum Inhibitory Concentration (Table 4, EPI Conc. 40 μg/ml): 0.125 µg/mL; Levofloxacin MIC Against P. aeruginosa PAM1001 in Presence of Efflux Pump Inhibitor (EPI), Minimum Inhibitory Concentration [4]: 0.125 µg/mL
β-(2-Thiaizolyl)alanyl-Nα -methylornithine 2-naphthylamide [Compound 30 (Table 1)]	4	4	1	0.25	0.25	0.25	4	4	2	1	0.25	0.50									Levofloxacin MIC Against P. aeruginosa PAM1001 in Presence of Efflux Pump Inhibitor (EPI), Minimum Inhibitory Concentration (Table 2, EPI Conc. […]): 4 µg/mL
